From ChEMBL document CHEMBL1201862, “PubChem BioAssay data set” (2004)
Activity calls are given as the source filed them. For most assays here, no stated cut-off is given here; in the data, actives have a measured EC50 and inactives only a lower limit.

Key:
[1] = DRD fibroblast viability loss – cell-based, non-viral oncogenic, luminescence, dose response (AID 1934); assay type: functional; conditions: Homo sapiens
BJ [2] = assay: cells; assay type: functional, cell-based; conditions: Homo sapiens
[3] = Luminescence Cell-Based Dose Response HTS to Identify Inhibitors of 5'UTR Stem-Loop Driven Prion Protein mRNA Translation in H4 Neuroglioblastoma Cells. [Related pubchem assays: 1827 (Project Summary), 1813 (Primary HTS)]; assay type: functional
BJ [4] = assay: BJ-TERT fibroblast viability loss – cell-based, RAS-independent, luminescence, dose response (AID 1933); assay type: functional; conditions: Homo sapiens
[5] = luciferase reporter signal suppression in cells – H4 neuroglioma cells, luminescence, dose response (AID 1990); assay type: functional, cell-based
[6] = alpha-synuclein stem-loop luciferase translation blockers – H4 neuroglioma cells, luminescence, confirmation (AID 1988); assay type: functional, cell-based
BJ [7] = assay: BJ-TERT-LT-ST fibroblast viability loss – cell-based, RAS-independent, luminescence, dose response (AID 1935); assay type: functional; conditions: Homo sapiens;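 further: BJ fibroblasts immortalized with TERT plus LT and ST oncogenes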
BJ [8] = assay: growth inhibition of engineered Ras-driven BJ cells – cell-based, alamar blue fluorescence, cherrypicked samples, dose response (AID 2631); assay type: functional; conditions: Homo sapiens;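 further: confirmatory dose-response assay in RAS-dependent BJ fibroblasts engineered with TERT, LT and ST, with cytotoxicity read by fluorescence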
[9] = biological target: T1, Carboxy-terminal domain RNA polymerase II polypeptide A small phosphatase 1 (Homo sapiens, UniProt Q9GZU7); assay: CTDSP1 inhibitors, concentration-response, biochemical, absorbance readout, ultra-high-throughput screen actives (AID 540297); assay type: functional
T1 sequence (Q9GZU7 whole entry): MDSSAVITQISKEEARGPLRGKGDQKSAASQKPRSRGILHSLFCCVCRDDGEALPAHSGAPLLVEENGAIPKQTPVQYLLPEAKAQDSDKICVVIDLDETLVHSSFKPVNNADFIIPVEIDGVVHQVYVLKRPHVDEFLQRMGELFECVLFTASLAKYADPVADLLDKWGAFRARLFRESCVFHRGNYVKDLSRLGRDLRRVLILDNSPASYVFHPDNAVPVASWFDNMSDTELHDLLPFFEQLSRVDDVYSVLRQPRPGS

[10] = biological target: DNA dC->dU-editing enzyme APOBEC-3A (Homo sapiens, UniProt P31941); assay: Dose Response confirmation of small molecule APOBEC3A DNA Deaminase Inhibitors via a fluorescence-based single-stranded DNA deaminase assay. [Related pubchem assays (depositor defined):AID493011, AID493024]; assay type: functional
DNA dC->dU-editing enzyme APOBEC-3A, sequence (P31941 whole entry): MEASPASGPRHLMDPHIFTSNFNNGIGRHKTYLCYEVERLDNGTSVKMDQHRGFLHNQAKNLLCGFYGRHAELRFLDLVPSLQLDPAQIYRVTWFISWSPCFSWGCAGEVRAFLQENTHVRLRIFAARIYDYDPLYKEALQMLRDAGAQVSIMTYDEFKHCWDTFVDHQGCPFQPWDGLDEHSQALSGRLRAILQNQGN

[11] = biological target: DNA dC->dU-editing enzyme APOBEC-3G (Homo sapiens, UniProt Q9HC16); assay type: functional;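 further: Dose-response counterscreen measuring inhibition of APOBEC3G DNA deaminase activity, run while confirming APOBEC3A inhibitors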
DNA dC->dU-editing enzyme APOBEC-3G, sequence (Q9HC16 whole entry): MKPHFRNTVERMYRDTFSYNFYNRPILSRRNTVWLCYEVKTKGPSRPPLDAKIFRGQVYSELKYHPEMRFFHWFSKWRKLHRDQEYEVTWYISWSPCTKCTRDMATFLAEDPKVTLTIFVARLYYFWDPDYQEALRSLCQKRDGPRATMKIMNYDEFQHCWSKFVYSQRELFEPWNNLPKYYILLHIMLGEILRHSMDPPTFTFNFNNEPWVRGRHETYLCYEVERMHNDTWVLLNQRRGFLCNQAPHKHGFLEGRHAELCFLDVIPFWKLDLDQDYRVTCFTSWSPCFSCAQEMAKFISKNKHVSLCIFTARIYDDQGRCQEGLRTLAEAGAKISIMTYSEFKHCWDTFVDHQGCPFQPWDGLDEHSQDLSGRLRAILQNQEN

[12] = biological target: DNA (cytosine-5)-methyltransferase 1 (Homo sapiens, UniProt P26358); assay: inhibition of DNA methylation by DNMT1 – biochemical, fluorescent molecular beacon, confirmation (AID 602386); assay type: functional
DNA (cytosine-5)-methyltransferase 1, sequence (P26358 whole entry): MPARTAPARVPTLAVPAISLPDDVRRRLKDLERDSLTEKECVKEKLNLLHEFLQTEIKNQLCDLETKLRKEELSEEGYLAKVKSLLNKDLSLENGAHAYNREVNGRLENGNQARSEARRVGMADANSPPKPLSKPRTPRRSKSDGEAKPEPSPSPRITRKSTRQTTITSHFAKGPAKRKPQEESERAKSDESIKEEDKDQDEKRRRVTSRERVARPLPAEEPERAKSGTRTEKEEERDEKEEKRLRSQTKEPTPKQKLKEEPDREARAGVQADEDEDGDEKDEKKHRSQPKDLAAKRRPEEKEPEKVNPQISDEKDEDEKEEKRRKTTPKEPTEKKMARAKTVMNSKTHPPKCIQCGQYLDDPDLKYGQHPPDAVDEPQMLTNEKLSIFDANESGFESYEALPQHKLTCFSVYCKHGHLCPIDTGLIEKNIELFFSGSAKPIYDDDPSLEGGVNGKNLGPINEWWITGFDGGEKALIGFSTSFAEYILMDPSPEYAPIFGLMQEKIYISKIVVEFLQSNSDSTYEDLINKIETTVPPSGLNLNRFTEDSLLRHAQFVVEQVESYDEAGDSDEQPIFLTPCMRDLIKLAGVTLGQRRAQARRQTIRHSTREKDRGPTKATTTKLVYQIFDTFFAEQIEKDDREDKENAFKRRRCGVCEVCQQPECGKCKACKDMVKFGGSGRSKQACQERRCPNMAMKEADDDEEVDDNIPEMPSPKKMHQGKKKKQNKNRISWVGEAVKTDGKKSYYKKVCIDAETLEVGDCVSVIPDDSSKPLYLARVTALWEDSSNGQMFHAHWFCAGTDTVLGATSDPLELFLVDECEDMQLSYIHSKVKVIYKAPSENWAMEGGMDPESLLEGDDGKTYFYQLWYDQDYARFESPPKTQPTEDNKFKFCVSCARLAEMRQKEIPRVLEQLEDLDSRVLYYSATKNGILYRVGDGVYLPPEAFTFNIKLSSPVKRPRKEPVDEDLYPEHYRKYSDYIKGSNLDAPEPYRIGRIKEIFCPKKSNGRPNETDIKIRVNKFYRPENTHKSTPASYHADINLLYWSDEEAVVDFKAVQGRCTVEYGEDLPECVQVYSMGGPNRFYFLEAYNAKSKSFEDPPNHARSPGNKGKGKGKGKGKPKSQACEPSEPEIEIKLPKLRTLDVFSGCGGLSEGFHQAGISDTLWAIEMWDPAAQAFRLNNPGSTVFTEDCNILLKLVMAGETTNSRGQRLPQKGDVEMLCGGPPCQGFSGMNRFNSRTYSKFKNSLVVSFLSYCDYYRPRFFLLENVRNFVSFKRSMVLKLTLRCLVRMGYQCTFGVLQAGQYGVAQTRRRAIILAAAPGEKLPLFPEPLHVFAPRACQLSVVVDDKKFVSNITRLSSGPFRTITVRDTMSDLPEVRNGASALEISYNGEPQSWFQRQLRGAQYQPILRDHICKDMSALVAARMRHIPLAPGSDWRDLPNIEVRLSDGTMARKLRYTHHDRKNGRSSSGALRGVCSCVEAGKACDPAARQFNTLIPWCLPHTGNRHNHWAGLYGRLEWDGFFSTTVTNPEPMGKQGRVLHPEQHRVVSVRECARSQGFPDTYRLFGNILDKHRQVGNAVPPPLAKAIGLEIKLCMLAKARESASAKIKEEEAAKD

[13] = biological target: T2, Sentrin-specific protease 6 (Homo sapiens, UniProt Q9GZR1); assay type: functional;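 further: Luminescence-based dose-response confirmatory assay of SENP6 inhibition, following up an ultra-high-throughput screen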
T2 sequence (Q9GZR1 whole entry): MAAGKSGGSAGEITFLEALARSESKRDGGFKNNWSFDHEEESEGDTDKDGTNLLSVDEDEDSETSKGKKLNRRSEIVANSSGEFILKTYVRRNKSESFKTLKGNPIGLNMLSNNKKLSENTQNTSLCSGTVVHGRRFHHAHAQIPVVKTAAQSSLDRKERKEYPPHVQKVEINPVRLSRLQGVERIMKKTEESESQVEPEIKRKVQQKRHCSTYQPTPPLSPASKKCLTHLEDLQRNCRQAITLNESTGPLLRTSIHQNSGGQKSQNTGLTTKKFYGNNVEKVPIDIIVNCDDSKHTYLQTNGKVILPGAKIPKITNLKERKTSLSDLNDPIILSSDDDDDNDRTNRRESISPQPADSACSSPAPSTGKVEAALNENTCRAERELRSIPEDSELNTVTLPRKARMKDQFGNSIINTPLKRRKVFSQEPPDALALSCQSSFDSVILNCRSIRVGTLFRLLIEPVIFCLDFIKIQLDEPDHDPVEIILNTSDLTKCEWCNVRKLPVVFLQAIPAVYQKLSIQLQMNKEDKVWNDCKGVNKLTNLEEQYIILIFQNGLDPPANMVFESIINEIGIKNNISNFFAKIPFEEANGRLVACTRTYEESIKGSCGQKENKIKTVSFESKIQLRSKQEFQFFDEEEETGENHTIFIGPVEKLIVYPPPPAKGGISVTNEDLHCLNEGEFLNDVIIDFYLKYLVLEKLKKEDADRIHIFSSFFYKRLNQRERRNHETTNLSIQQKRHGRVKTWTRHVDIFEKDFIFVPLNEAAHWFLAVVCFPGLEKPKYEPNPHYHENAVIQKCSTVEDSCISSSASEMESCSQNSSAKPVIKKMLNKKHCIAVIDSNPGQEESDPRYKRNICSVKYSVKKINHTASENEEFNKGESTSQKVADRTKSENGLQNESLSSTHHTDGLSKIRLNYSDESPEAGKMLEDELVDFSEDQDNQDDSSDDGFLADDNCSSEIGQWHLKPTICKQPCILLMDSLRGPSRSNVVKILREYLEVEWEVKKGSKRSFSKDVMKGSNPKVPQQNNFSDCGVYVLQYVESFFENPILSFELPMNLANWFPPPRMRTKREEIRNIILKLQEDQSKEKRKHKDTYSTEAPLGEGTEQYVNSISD

[14] = Luminescence Cell-Based Dose Response HTS to Identify Activators of Luciferase Translation or Activity in H4 […] Cells. [Related pubchem assays: 1829 (Project Summary), 1814 (Primary HTS)]; assay type: functional
[15] = biological target: T3, Sentrin-specific protease 8 (Homo sapiens, UniProt Q96LD8); assay type: functional;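 further: luminescence read-out of SENP8 inhibition, dose-response confirmation following an ultra-high-throughput screen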
T3 sequence (Q96LD8 whole entry): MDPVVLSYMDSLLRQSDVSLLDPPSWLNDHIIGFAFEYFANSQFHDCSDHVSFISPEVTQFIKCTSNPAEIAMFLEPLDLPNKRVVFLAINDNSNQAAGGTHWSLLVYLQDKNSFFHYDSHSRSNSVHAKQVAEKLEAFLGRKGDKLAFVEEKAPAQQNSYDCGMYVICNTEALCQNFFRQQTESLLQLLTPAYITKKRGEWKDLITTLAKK

H4 = assay: Luminescence Cell-Based Dose Response HTS to Identify Activators of 5'UTR Stem-Loop Driven Prion Protein mRNA Translation in H4 Neuroglioblastoma Cells. [Related pubchem assays: 1829 (Project Summary), 1814 (Primary HTS)]; assay type: functional; conditions: Homo sapiens
Caspase-3 = biological target: T4, Caspase-3 (Homo sapiens, UniProt P42574); assay type: functional;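 further: Dose-response selectivity test against caspase-3 for candidate inhibitors of sentrin-specific proteases (SENPs)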
T4 sequence (P42574 whole entry): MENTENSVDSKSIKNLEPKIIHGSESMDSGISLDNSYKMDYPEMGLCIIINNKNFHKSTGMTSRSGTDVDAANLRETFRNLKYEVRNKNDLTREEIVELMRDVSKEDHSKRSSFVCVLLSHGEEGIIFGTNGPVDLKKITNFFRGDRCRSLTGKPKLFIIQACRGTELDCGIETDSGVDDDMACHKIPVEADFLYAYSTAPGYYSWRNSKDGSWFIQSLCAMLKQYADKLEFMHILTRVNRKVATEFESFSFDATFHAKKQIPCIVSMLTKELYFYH

[16] = biological target: Voltage-dependent T-type calcium channel subunit alpha-1H (Homo sapiens, UniProt O95180); assay type: functional;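 further: channel activity triggered by adding a high calcium stimulation buffer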
Voltage-dependent T-type calcium channel subunit alpha-1H, sequence (O95180 whole entry): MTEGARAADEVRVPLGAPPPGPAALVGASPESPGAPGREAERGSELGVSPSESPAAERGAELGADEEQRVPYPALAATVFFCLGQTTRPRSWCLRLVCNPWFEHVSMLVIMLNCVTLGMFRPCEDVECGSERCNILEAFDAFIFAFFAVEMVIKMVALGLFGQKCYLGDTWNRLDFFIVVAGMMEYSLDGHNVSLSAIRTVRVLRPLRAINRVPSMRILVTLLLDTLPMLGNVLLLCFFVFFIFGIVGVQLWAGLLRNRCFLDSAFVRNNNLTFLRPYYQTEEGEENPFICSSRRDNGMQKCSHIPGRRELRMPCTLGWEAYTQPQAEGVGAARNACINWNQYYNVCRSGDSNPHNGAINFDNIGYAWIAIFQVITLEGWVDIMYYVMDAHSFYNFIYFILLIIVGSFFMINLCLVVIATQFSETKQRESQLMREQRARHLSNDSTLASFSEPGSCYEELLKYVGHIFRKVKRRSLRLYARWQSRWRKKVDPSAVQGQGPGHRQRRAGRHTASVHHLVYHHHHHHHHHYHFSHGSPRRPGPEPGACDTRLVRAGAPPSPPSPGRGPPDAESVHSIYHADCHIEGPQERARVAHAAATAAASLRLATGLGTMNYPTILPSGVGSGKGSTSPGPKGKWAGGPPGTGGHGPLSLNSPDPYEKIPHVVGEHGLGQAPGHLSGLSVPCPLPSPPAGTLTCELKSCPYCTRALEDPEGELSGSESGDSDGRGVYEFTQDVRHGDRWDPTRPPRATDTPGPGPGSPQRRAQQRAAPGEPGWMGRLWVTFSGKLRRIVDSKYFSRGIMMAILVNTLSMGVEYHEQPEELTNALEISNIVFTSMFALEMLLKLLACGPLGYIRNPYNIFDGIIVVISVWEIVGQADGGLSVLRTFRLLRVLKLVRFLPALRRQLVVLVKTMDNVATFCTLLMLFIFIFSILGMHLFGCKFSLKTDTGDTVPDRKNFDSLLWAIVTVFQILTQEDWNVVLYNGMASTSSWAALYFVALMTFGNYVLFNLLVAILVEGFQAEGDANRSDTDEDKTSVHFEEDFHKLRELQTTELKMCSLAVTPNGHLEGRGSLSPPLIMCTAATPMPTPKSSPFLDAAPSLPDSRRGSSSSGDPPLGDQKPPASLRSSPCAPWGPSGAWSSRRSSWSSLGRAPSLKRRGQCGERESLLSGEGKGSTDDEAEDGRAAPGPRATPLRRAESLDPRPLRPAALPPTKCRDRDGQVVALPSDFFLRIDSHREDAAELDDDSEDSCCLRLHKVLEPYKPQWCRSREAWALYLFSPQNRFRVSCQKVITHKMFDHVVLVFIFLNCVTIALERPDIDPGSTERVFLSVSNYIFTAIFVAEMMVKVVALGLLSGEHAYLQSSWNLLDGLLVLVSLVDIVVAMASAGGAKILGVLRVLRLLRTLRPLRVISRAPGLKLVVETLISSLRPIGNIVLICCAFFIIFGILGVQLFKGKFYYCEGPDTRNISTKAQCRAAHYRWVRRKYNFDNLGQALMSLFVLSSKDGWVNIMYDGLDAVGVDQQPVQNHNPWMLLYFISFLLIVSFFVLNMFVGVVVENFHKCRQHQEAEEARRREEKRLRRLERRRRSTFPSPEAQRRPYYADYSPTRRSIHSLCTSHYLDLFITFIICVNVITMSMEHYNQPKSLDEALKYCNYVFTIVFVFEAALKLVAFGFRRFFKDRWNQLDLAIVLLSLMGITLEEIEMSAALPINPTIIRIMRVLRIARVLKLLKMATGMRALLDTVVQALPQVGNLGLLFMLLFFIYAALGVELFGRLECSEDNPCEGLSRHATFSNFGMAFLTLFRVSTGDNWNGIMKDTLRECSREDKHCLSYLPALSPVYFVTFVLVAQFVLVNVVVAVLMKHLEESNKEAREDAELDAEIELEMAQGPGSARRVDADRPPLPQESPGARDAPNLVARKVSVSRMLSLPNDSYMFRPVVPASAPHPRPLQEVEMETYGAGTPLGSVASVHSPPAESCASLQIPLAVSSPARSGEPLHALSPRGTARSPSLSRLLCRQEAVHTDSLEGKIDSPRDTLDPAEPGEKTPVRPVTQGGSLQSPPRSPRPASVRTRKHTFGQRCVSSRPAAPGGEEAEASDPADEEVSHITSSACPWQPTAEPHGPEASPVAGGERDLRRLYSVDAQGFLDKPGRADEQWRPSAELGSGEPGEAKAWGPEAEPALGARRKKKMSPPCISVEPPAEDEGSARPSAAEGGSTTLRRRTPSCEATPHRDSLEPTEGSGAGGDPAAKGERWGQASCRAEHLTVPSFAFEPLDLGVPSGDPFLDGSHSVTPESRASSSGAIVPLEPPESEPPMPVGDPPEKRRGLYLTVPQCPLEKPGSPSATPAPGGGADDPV

[17] = biological target: T5, Sentrin-specific protease 7 (Homo sapiens, UniProt Q9BQF6); assay type: functional;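 further: Luminescence-based dose-response confirmation of ultra-high-throughput screening hits, measuring inhibition of SENP7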
T5 sequence (Q9BQF6 whole entry): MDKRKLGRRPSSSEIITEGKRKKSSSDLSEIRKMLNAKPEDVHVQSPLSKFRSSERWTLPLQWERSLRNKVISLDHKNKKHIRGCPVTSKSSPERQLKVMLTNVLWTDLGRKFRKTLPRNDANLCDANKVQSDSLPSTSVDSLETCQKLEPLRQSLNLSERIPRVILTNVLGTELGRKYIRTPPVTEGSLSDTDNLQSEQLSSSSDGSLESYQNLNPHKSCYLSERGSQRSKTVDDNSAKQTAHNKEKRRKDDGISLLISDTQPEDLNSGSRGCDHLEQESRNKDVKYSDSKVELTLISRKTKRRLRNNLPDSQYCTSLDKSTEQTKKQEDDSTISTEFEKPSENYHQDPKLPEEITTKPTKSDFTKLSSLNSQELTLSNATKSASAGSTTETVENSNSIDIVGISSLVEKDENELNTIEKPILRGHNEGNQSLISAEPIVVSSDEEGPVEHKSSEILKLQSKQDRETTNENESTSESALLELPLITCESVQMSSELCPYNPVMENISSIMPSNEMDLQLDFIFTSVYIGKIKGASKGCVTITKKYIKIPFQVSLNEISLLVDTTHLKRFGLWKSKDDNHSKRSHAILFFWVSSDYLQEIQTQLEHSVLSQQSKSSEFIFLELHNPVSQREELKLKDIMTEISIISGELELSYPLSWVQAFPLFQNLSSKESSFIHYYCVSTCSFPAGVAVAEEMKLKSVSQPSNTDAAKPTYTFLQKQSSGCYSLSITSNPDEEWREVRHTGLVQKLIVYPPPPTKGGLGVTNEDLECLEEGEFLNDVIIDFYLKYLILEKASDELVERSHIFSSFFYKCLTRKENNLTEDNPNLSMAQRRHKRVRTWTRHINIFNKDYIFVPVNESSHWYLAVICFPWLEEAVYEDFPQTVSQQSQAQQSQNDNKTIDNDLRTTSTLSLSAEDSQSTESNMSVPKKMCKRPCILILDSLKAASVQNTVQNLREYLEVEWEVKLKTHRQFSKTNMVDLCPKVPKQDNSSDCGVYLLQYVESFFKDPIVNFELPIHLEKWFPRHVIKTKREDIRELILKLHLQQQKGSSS

[18] = Luminescence Cell-Based Dose Confirmation HTS to Identify Activators of 5'UTR Stem-Loop Driven Alpha-Synuclein mRNA Translation in H4 Neuroglioblastoma Cells. [Related pubchem assays: 1829 (Project Summary), 1814 (Primary HTS)]; assay type: functional

With CCCc1cc(O)nc(SCC(=O)c2c(N)n(CC(C)C)c(=O)n(C)c2=O)n1 as the molecule, how does the EC50 [1] read?
The EC50 was 10.7 µM (active).

What about the EC50 (BJ [2]) of the same molecule?
Its EC50 is 9.97 µM (inconclusive).

What about the EC50 [3] of the same molecule?
The EC50 was 18.1 µM (active).

And the EC50 (BJ [4])?
Its EC50 is > 150 µM (not active).

And the EC50 [5]?
Its EC50 is 9.13 µM (active).

What about the EC50 [6] of the same molecule?
Its EC50 is 12.1 µM (active).

What about the EC50 (BJ [7]) of the same molecule?
Its EC50 is > 150 µM (not active).

And the EC50 (BJ [8])?
The EC50 was > 133 µM (inactive).

Which IC50 [9] does the source give for O=C(COC(=O)c1cc2c(s1)CCC2)Nc1ccc(F)cc1 here?
The IC50 was 4.34 µM (active).

What about the IC50 [10] of the same molecule?
The IC50 was 19.6 µM (active).

And the IC50 [11]?
Its IC50 is 34.6 µM (active).

What about the IC50 [12] of the same molecule?
Its IC50 is 10.3 µM (active).

Which IC50 [13] does the source give for Cc1nnc(SCCC(=O)Nc2nc(-c3ccccc3)ns2)s1 here?
Its IC50 is 21.9 µM (active).

And the EC50 [14]?
The EC50 was 15 µM (active).

What about the IC50 [15] of the same molecule?
Its IC50 is 24.1 µM (active).

And the EC50 (H4)?
The EC50 was 8.61 µM (active).

And the IC50 (Caspase-3)?
Its IC50 is 44.1 µM (active).

And the EC50 [16]?
Its EC50 is 2.54 µM (active).

What about the IC50 [17] of the same molecule?
Its IC50 is 13.1 µM (active).

And the EC50 [18]?
Its EC50 is > 120 µM (not active).
